This note sets out measurements from article PMC12041370, “AARS2-catalyzed lactylation induces follicle development and premature ovarian insufficiency” (Cell Death Discovery, 2025).

The target in test [1] is T1, AARS2 (Homo sapiens, UniProt Q5JTZ9).
T1 construct: full-length human AARS2 985 aa
T1 sequence (Q5JTZ9 11-985): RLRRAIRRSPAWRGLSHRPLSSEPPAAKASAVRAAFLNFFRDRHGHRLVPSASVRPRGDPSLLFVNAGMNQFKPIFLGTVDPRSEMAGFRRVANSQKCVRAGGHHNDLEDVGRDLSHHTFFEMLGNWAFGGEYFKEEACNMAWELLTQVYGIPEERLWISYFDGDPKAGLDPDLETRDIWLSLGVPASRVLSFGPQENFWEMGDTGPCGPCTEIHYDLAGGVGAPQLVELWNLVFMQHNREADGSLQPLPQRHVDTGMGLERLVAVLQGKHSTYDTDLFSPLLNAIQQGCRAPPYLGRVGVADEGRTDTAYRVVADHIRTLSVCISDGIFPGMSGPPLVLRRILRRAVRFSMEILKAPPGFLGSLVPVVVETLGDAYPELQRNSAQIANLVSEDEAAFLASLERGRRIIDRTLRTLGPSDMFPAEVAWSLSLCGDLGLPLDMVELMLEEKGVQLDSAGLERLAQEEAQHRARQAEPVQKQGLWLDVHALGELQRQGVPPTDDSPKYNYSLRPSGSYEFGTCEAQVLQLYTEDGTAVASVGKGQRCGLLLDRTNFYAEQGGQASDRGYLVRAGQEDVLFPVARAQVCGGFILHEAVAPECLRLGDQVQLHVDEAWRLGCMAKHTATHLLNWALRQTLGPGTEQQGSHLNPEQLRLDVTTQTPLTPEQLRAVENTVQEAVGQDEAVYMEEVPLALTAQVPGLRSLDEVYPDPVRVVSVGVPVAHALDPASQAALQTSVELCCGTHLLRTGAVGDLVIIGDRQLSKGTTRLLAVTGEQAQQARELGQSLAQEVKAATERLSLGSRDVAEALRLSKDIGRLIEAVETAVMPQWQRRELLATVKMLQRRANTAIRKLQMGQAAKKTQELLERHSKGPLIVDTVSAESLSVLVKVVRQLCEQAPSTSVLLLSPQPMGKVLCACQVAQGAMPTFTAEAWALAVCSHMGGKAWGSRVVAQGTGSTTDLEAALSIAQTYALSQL
Briefly: isothermal titration calorimetry (Microcal). The class given is binding. Conditions: read-out: K. From the text: isothermal titration calorimetry (Microcal) on AARS2 | The parameters of lactate binding to AARS2 were as follows

Test [2] has as its target T2, AARS2 (Homo sapiens, UniProt Q5JTZ9, R199C).
T2 construct: full-length human AARS2 985 aa
T2 sequence (Q5JTZ9 11-985 R199C): T1 sequence (Q5JTZ9 11-985) with R189C
Briefly: isothermal titration calorimetry (Microcal). The class given is binding. Conditions: read-out: K. From the text:
isothermal titration calorimetry (Microcal) on AARS2 | For lactate binding to the R199C mutant, the parameters were as follows
A general note: ITC needs no label: the signal is the heat of the interaction.

For test [3], the target named is T1, AARS2. Nature of the test: in vitro lactylation of PDHA1 and CPT2, Western blot. The class given is biochemical. Conditions: β-alanine in reaction mix, concentration not told.

Residue numbers refer to the chain shown, from its start.

`C[C@H](O)C(=O)O` [lactate]: the Kd at AARS2 [1] lay within 8.23 to 17.9 µM; at AARS2 [2], 2.6 to 3.7 µM.

As to `NCCC(=O)O` [β-alanine], at AARS2 [3], the inhibition entry is “β-alanine inactivated lactyltransferase activities of both AARS2 and R199C”.
